Assay results reported in ChEMBL document CHEMBL3751670, “Enkephalin analogues with N-phenyl-N-(piperidin-2-ylmethyl)propionamide derivatives: Synthesis and biological evaluations” (Bioorg Med Chem Lett, 2016).

System: Rattus norvegicus
Assay: Antinociceptive activity in non-injured Sprague-Dawley rat model assessed as paw withdrawal latency at 10 ug/5 uL administered intrathecal after 5 mins by radiant heat assay relative to vehicle-treated control
Assay type: functional

Work on `CCC(=O)N(CC1CCCCN1[C@@H](Cc1ccccc1)C(=O)NCC(=O)N[C@H](C)C(=O)N[C@@H](Cc1c(C)cc(O)cc1C)C(=O)O)c1ccccc1` (stereo partly specified) yielded an Activity of 63%.
